# According to patent US8389764B2, “Urea and sulfamide derivatives as inhibitors of TAFIa” (Sanofi, priority 2006, dated 2013):
# Molecular target: T1, TAFIa (Homo sapiens, UniProt Q96IY4)
# T1 construct: purchased American Diagnostica 874TAFIA
# T1 sequence (Q96IY4 115-423): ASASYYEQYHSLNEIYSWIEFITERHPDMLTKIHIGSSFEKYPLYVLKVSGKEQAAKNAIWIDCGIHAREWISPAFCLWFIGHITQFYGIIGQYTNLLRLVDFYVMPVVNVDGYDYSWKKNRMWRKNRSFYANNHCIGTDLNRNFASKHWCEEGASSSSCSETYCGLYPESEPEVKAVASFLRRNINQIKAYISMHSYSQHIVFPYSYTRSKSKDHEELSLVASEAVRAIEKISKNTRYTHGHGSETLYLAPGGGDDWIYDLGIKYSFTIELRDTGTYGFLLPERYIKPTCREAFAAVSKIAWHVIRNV
# Experiment: TAFIa inhibition, Actichrome plasma TAFI activity kit (American Diagnostica)
# Type: biochemical
# Conditions: 15 min preincubation at room temperature, read at 420 nm, duplicate determination of serial dilutions
# Experimental: The enzymic reaction was started by adding 10 μl of TAFIa developer (prediluted 1:2 with assay buffer).
# The IC50 values were calculated from the averaged values (duplicate determination) of serial dilutions of the substance with the aid of the Softmax Pro software (version 4.8; Molecular Devices).
smiles,measurement,value
CCOC(=O)[C@@H]1CCCC[C@@H]1NC(=O)[C@@H](CCCCNC(=O)OCc1ccccc1)NC(=O)N[C@@H](CCCCN)C(=O)O [Example 33],IC50,190 nM
